System: HCT116 colorectal cancer cells
Assay: Cisplatin sensitization assay (96 h cell viability MTS);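 note: compound concentration needed to lower the Cisplatin-alone IC50 by a set fold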
Type: cell-based
Details: 96 h MTS, compound plus Cisplatin
Experimental: Compounds can be screened for their ability to sensitize HCT116 colorectal cancer cells to Cisplatin using a 96 h cell viability (MTS) assay. […] Compounds and Cisplatin are then both added simultaneously to the cell media in 2-fold serial dilutions from a top final concentration of 10 μM as a full matrix of concentrations in a final cell volume of 200 μl, and the cells are then incubated at 37° C. in 5% CO2. After 96 h, 40 μl of MTS reagent (Promega G358a) is added to each well and the cells are incubated for 1 h at 37° C. in 5% CO2.

Compound	Cisplatin Sensitization Assay
Nc1nn2cc(F)cnc2c1C(=O)Nc1cnccc1N1CCN(C2CCOC2)CC1 (racemic) [I-N-19, (R,S)-2-amino-6-fluoro-N-(4-(4-(tetrahydrofuran-3-yl)piperazin-1-yl)pyridin-3-yl)pyrazolo[1,5-a]pyrimidine-3-carboxamide]	+++ (Compounds with a Cisplatin sensitization value of <0.02 μM are marked with “+++.”)
N#CCc1cnc2c(C(=O)Nc3cnccc3OC3CCCNC3)c(N)nn2c1 (racemic) [I-O-2, (R,S)-2-amino-6-(cyanomethyl)-N-(4-(piperidin-3-yloxy)pyridin-3-yl)pyrazolo[1,5-a]pyrimidine-3-carboxamide]	++ (Compounds with a Cisplatin sensitization value >0.02 μM but <0.2 μM are marked with “++.”)
Nc1nn2cc(F)cnc2c1C(=O)Nc1cnccc1OC1CN2CCC1CC2 (racemic) [I-O-6, (R,S)-2-amino-6-fluoro-N-(4-(quinuclidin-3-yloxy)pyridin-3-yl)pyrazolo[1,5-a]pyrimidine-3-carboxamide]	+++ (Compounds with a Cisplatin sensitization value of <0.02 μM are marked with “+++.”)
Nc1nn2cc(F)cnc2c1C(=O)Nc1cnccc1OC1CCOC1 (racemic) [I-O-15, (R,S)-2-amino-6-fluoro-N-(4-((tetrahydrofuran-3-yl)oxy)pyridin-3-yl)pyrazolo[1,5-a]pyrimidine-3-carboxamide]	+++ (Compounds with a Cisplatin sensitization value of <0.02 μM are marked with “+++.”)
CN1CCC(c2ccncc2NC(=O)c2c(N)nn3cc(F)cnc23)CC1 [I-C-1, 2-amino-6-fluoro-N-(4-(1-methylpiperidin-4-yl)pyridin-3-yl)pyrazolo[1,5-a]pyrimidine-3-carboxamide]	++ (Compounds with a Cisplatin sensitization value >0.02 μM but <0.2 μM are marked with “++.”)
Cc1ccncc1NC(=O)c1c(N)nn2cc(Cl)cnc12 [I-C-2, 2-amino-6-chloro-N-(4-methylpyridin-3-yl)pyrazolo[1,5-a]pyrimidine-3-carboxamide]	++ (Compounds with a Cisplatin sensitization value >0.02 μM but <0.2 μM are marked with “++.”)
Cc1ccncc1NC(=O)c1c(N)nn2cc(F)cnc12 [I-C-4, 2-amino-6-fluoro-N-(4-methylpyridin-3-yl)pyrazolo[1,5-a]pyrimidine-3-carboxamide]	++ (Compounds with a Cisplatin sensitization value >0.02 μM but <0.2 μM are marked with “++.”)
Nc1nn2cc(F)cnc2c1C(=O)Nc1cnccc1-c1ccccc1 [I-C-5, 2-amino-6-fluoro-N-(4-phenylpyridin-3-yl)pyrazolo[1,5-a]pyrimidine-3-carboxamide]	+++ (Compounds with a Cisplatin sensitization value of <0.02 μM are marked with “+++.”)
N#CCc1cnc2c(C(=O)Nc3cnccc3-c3ccccc3)c(N)nn2c1 [I-C-6, 2-amino-6-(cyanomethyl)-N-(4-phenylpyridin-3-yl)pyrazolo[1,5-a]pyrimidine-3-carboxamide]	+++ (Compounds with a Cisplatin sensitization value of <0.02 μM are marked with “+++.”)
Nc1nn2cc(F)cnc2c1C(=O)Nc1cncc2c1CCNC2 [I-C-7, 2-amino-6-fluoro-N-(5,6,7,8-tetrahydro-2,7-naphthyridin-4-yl)pyrazolo[1,5-a]pyrimidine-3-carboxamide]	++ (Compounds with a Cisplatin sensitization value >0.02 μM but <0.2 μM are marked with “++.”)
CN1CCc2c(cncc2NC(=O)c2c(N)nn3cc(F)cnc23)C1 [I-C-8, 2-amino-6-fluoro-N-(7-methyl-5,6,7,8-tetrahydro-2,7-naphthyridin-4-yl)pyrazolo[1,5-a]pyrimidine-3-carboxamide]	+ (Compounds with a Cisplatin sensitization value >0.2 μM but <5 μM are marked with “+.”)
C[N+]1([O-])CCc2c(cncc2NC(=O)c2c(N)nn3cc(F)cnc23)C1 (stereo not shown) [I-C-9, 5-(2-amino-6-fluoropyrazolo[1,5-a]pyrimidine-3-carboxamido)-2-methyl-1,2,3,4-tetrahydro-2,7-naphthyridine 2-oxide]	+ (Compounds with a Cisplatin sensitization value >0.2 μM but <5 μM are marked with “+.”)
Nc1nn2cc(F)cnc2c1C(=O)Nc1cnccc1C1CCN(C2COC2)CC1 [I-C-10, 2-amino-6-fluoro-N-(4-(1-(oxetan-3-yl)piperidin-4-yl)pyridin-3-yl)pyrazolo[1,5-a]pyrimidine-3-carboxamide]	+++ (Compounds with a Cisplatin sensitization value of <0.02 μM are marked with “+++.”)
Nc1nn2cc(Cl)cnc2c1C(=O)Nc1cnccc1C1CCN(C2COC2)CC1 [I-C-11, 2-amino-6-chloro-N-(4-(1-(oxetan-3-yl)piperidin-4-yl)pyridin-3-yl)pyrazolo[1,5-a]pyrimidine-3-carboxamide]	+++ (Compounds with a Cisplatin sensitization value of <0.02 μM are marked with “+++.”)
Nc1nn2cc(F)cnc2c1C(=O)Nc1cncc(F)c1C1=CCN(C2COC2)CC1 [I-C-12, 2-amino-6-fluoro-N-(5-fluoro-1′-(oxetan-3-yl)-1′,2′,3′,6′-tetrahydro-[4,4′-bipyridin]-3-yl)pyrazolo[1,5-a]pyrimidine-3-carboxamide]	+++ (Compounds with a Cisplatin sensitization value of <0.02 μM are marked with “+++.”)
Nc1nn2cc(F)cnc2c1C(=O)Nc1cncc(F)c1C1CCN(C2COC2)CC1 [I-C-13, 2-amino-6-fluoro-N-(5-fluoro-4-(1-(oxetan-3-yl)piperidin-4-yl)pyridin-3-yl)pyrazolo[1,5-a]pyrimidine-3-carboxamide]	++ (Compounds with a Cisplatin sensitization value >0.02 μM but <0.2 μM are marked with “++.”)
CN1CCC(c2c(F)cncc2NC(=O)c2c(N)nn3cc(F)cnc23)CC1 [I-C-14, 2-amino-6-fluoro-N-(5-fluoro-4-(1-methylpiperidin-4-yl)pyridin-3-yl)pyrazolo[1,5-a]pyrimidine-3-carboxamide]	+ (Compounds with a Cisplatin sensitization value >0.2 μM but <5 μM are marked with “+.”)
Nc1nn2cc(F)cnc2c1C(=O)Nc1cnccc1-c1cccnc1 [I-C-15, N-([3,4′-bipyridin]-3′-yl)-2-amino-6-fluoropyrazolo[1,5-a]pyrimidine-3-carboxamide]	++ (Compounds with a Cisplatin sensitization value >0.02 μM but <0.2 μM are marked with “++.”)
CN1CCC(C(=O)N2CCC(c3ccncc3NC(=O)c3c(N)nn4cc(F)cnc34)CC2)CC1 [I-C-16, 2-amino-6-fluoro-N-(4-(1-(1-methylpiperidine-4-carbonyl)piperidin-4-yl)pyridin-3-yl)pyrazolo[1,5-a]pyrimidine-3-carboxamide]	+ (Compounds with a Cisplatin sensitization value >0.2 μM but <5 μM are marked with “+.”)
CN1CCN(C(=O)N2CCC(c3ccncc3NC(=O)c3c(N)nn4cc(F)cnc34)CC2)CC1 [I-C-17, 2-amino-6-fluoro-N-(4-(1-(4-methylpiperazine-1-carbonyl)piperidin-4-yl)pyridin-3-yl)pyrazolo[1,5-a]pyrimidine-3-carboxamide]	++ (Compounds with a Cisplatin sensitization value >0.02 μM but <0.2 μM are marked with “++.”)
Nc1nn2cc(F)cnc2c1C(=O)Nc1cnccc1C1CCN(C(=O)C23CCN(CC2)CC3)CC1 [I-C-18, 2-amino-6-fluoro-N-(4-(1-(quinuclidine-4-carbonyl)piperidin-4-yl)pyridin-3-yl)pyrazolo[1,5-a]pyrimidine-3-carboxamide]	+ (Compounds with a Cisplatin sensitization value >0.2 μM but <5 μM are marked with “+.”)
CN1CCN(C(=O)c2ccc(-c3ccncc3NC(=O)c3c(N)nn4cc(F)cnc34)cn2)CC1 [I-C-19, 2-amino-6-fluoro-N-(6-(4-methylpiperazine-1-carbonyl)-[3,4′-bipyridin]-3′-yl)pyrazolo[1,5-a]pyrimidine-3-carboxamide]	++ (Compounds with a Cisplatin sensitization value >0.02 μM but <0.2 μM are marked with “++.”)
Cc1ncccc1-c1ccncc1NC(=O)c1c(N)nn2cc(F)cnc12 [I-C-20, 2-amino-6-fluoro-N-(2-methyl-[3,4′-bipyridin]-3′-yl)pyrazolo[1,5-a]pyrimidine-3-carboxamide]	+++ (Compounds with a Cisplatin sensitization value of <0.02 μM are marked with “+++.”)
CN1CCN(c2ccc(-c3ccncc3NC(=O)c3c(N)nn4cc(F)cnc34)cn2)CC1 [I-C-21, 2-amino-6-fluoro-N-(6-(4-methylpiperazin-1-yl)-[3,4′-bipyridin]-3′-yl)pyrazolo[1,5-a]pyrimidine-3-carboxamide]	+++ (Compounds with a Cisplatin sensitization value of <0.02 μM are marked with “+++.”)
Cc1ccc(-c2ccncc2NC(=O)c2c(N)nn3cc(F)cnc23)cn1 [I-C-22, 2-amino-6-fluoro-N-(6-methyl-[3,4′-bipyridin]-3′-yl)pyrazolo[1,5-a]pyrimidine-3-carboxamide]	++ (Compounds with a Cisplatin sensitization value >0.02 μM but <0.2 μM are marked with “++.”)
CN1CCC(c2ccncc2NC(=O)c2c(N)nn3cc(C(C)(C)C#N)cnc23)CC1 [I-C-23, 2-amino-6-(2-cyanopropan-2-yl)-N-(4-(1-methylpiperidin-4-yl)pyridin-3-yl)pyrazolo[1,5-a]pyrimidine-3-carboxamide]	+ (Compounds with a Cisplatin sensitization value >0.2 μM but <5 μM are marked with “+.”)
Nc1nn2cc(F)cnc2c1C(=O)Nc1cnccc1-c1ccncc1 [I-C-24, N-([4,4′-bipyridin]-3-yl)-2-amino-6-fluoropyrazolo[1,5-a]pyrimidine-3-carboxamide]	+++ (Compounds with a Cisplatin sensitization value of <0.02 μM are marked with “+++.”)
CN1CCN(C(=O)c2ccc(-c3ccncc3NC(=O)c3c(N)nn4cc(F)cnc34)cc2)CC1 [I-C-25, 2-amino-6-fluoro-N-(4-(4-(4-methylpiperazine-1-carbonyl)phenyl)pyridin-3-yl)pyrazolo[1,5-a]pyrimidine-3-carboxamide]	+++ (Compounds with a Cisplatin sensitization value of <0.02 μM are marked with “+++.”)
